From patent publication US20090239839A1, “RECEPTOR ANTAGONIST” (TAKEDA PHARMACEUTICAL COMPANY LIMITED, priority 2003, published 2009) come the findings set out here.

Common to all, as to assay type: in vivo
Experiment [1] relates to Wistar male rat. The experiment can be described thus: Blood glucose concentration increasing activity of RFRP (intravenous administration to rat). Conditions: RFRP-1 10 nmol/kg intravenous, 5 minutes and 15 minutes after administration, vs physiological saline group. An excerpt: In the figure, (-∘-) represents a blood glucose concentration of a physiological saline administration group, (-▴-) represents a blood glucose concentration of an RFRP-1 1 nmol/kg administration group, and (-▪-) represents a blood concentration of an RFRP-1 10 nmol/kg administration group.
As RFRP, human RFRP-1 (37 amino acids) consisting of an amino acid sequence of 56th (Ser) to 92nd (Phe) of an amino acid sequence represented by SEQ ID No.: 4. Hereinafter, this peptide is abbreviated as RFRP-1.
In order to study influence of peripheral administration of RFRP-1 on a blood glucose concentration, operation for collecting blood under free moving was performed. A mature Wistar male rat (weight 310 to 350 g at operation) was anesthetized with 50 mg/kg of pentobarbital by intraperitoneal administration. The rat was fixed on an anatomic pad in a supine position, and a left jugular vein was exposed. […]
Overnight after operation, 300 μl of blood was collected using a tuberculin injection syringe having a dose of 1 ml and a 25 gauge injection needle (both Telmo) before administration of RFRP-1. […] A blood glucose concentration was measured using Fuji Drichem 3500 (FUJIFILM).

Experiment [2] concerns Wistar male rat. As to the kind of experiment: Pancreatic glucagon secretion promoting activity of RFRP (blood glucagon and insulin in rat). Conditions: RFRP-1 intravenous; for blood glucagon concentration: vs physiological saline group. An excerpt: In the figure, (-∘-) represents a blood glucagon concentration of a physiological saline administration group, (-▴-) represents a blood glucagon concentration of an RFRP-1 1 nmol/kg administration group, and (-▪-) represents a blood glucagon concentration of an RFRP-1 10 nmol/kg administration group.
In the figure, (-∘-) represents a blood insulin concentration of a physiological saline administration group, (-▴-) represents a blood insulin concentration of an RFRP-1 1 nmol/kg administration group, and (-▪-) represents a blood insulin concentration of an RFRP-1 10 nmol/kg administration group. A value indicates mean±standard deviation (mean±SE) (n=4).
In order to study mechanism of blood glucose concentration increasing activity of RFRP-1, influence of RFRP-1 on a blood concentration of glucagon and insulin which are known as a hormone imparting a variation to a blood glucose concentration was studied. A mature Wistar male rat (weight 310 to 350 g at operation) was operated for collecting blood under free moving. Overnight after operation, 300 μl of a blood was collected using a tuberculin injection syringe having a dose of 1 ml and a 25 gauge injection needle (both Telmo) before administration of RFRP-1. In order to prevent blood coagulation, 3 μl of a 300 KIU/ml aprotinin solution containing 3 mg/ml EDTA had been placed into an injection syringe in advance. An Otsuka physiological saline or RFRP-1 dissolved in a physiological saline (80 nmol/mL) was intravenously administered through a tube at 1 mL/Kg. After 1, 3, 5 and 15 minutes from initiation of intravenous administration, each 300 μl of blood was collected from a jugular vein. The collected blood was centrifuged (13,000 rpm, 5 minutes) using a minor amount high speed cooling centrifuge (MR-150, Tommy Seiko), and the supernatant (plasma) was recovered.

Experiment [3] relates to Wistar male rat. As to the kind of experiment: Amnesia promoting activity of RFRP (cued fear conditioning, ventricle administration). Conditions: RFRP-1 3 nmol into a ventricle, on 2 day (48 hours after training), sound stimulation. How it is done:
FIG. 4 indicates a ratio of freezing in a sound clue when RFRP-1 (-□-) and a physiological saline (-∘-) are administered in a ventricle. An ordinate axis indicates freezing (%) of one day and two day after administration, respectively, expressed by mean±standard error.
Since an RFRP nerve is projected on amygdaloid complex, in order to study involvement of RFRP in amygdaloid complex-dependent memory•learning ability, influence under cued fear conditioning due to ventricle administration of RFRP-1 was studied. A mature Wistar male rat (weight 280 to 320 g at operation) was anesthetized with 50 mg/kg of pentobarbital by intraperitoneal administration, and a rat was fixed in a brain localization apparatus. A tooth cutting bar was set lower by 3.3 mm from an interoralline. A cranial bone was exposed, and a hole was opened in a bone using a dental drill in order to embed a guide cannulae AG-12 (internal diameter 0.4 mm, external diameter 0.5 mm, Eicom) in a ventricle. In addition, an anchor screw was embedded in four places at a periphery thereof. A stainless guide cannulae AG-12 was inserted so that its tip was positioned at an upper part of a side ventricle. A localization coordinate was set to be AP: −0.8 mm, L: 1.5 mm, H, 4.5 mm from a Blegma according to Atlas of Paxinos and Watson (1986). […]

Consider “RFRP-1: human RFRP-1 (37 amino acids) consisting of an amino acid sequence of 56th (Ser) to 92nd (Phe) of SEQ ID No.: 4 (SLNFEELKDWGPKNVIKMSTPAVNKMPHSFANLPLRF; Human)”, for which the blood glucose concentration entry with Wistar male rat [1] was “significant (p<0.05, n=4) activity of increasing a blood glucose concentration”. Further, the blood insulin concentration result in the experiment with Wistar male rat [2] was “a variation due to administration of RFRP-1 was not recognized”. For the same substance, the figures for the blood glucagon concentration entry in the experiment with Wistar male rat [2] (5 minutes after administration) and in the experiment with Wistar male rat [2] (two minutes after administration) were “significant (p<0.01) increase was continued” and “significant (p<0.01) increase in a blood glucagon concentration was recognized”, respectively. This substance also yielded a rate of freezing in the experiment with Wistar male rat [3] of 35.5%.
